Test results published in ChEMBL document CHEMBL3430912, “GSK Tres Cantos Anti-Kinetoplastid Screening (TCAKS) Data”.

Columns and labels:
Leishmania donovani [1] = assay: GSK_TCAKS: pIC50 Leishmania donovani viability assay using fluorescence intensity. Assay plates (1536-well) were prepared by adding 30nL per well of compound. For single shot assay, the final compound concentration was 5uM. […] Briefly, eGFP LdBOB axenic amastigotes were harvested, fixed and counted in a CASY cell counter (Roche-Applied Science). A final concentration of 1.5 * 10^5 cells per well were prepared in amastigote media containing 500 U/mL penicillin/streptomycin (Invitrogen) and 6uL was dispensed to each experimental well using a Multidrop Combi dispenser (Thermo Scientific). 6uL of assay media was dispensed to control columns used as reference for 100% compound response. Following incubation for 72 h at 37C, 5% CO2, 2 uL of resazurin was added to each well at a final concentration of 0.5 mM in phosphate buffered saline (PBS) with IGEPAL (Sigma-Aldrich), 0.05% (v/v).; assay type: functional, organism-based
Leishmania donovani [2] = assay: (§1) GSK_TCAKS: pIC50 Leishmania donovani Imaging: Infected Macrophages. Assay plates (384-well) were prepared by adding 250nL of compound to each well. For single shot assay, the final compound concentration was 5 uM. […] Automated image analysis was performed with a script developed on Acapella High Content Imaging and Analysis Software (PerkinElmer). Output: Percent of infected macrophage cells were reported for each well.; assay type: functional, organism-based, Homo sapiens; conditions: THP-1
Trypanosoma cruzi [3] = assay: GSK_TCAKS: pIC50 Trypanosoma cruzi viability assay using beta-GAL activity. This assay was run at single shot at 5uM compound concentration per well. The biological reagents consisted of NIH-3T3 host cells and trypomastigotes parasitic cells; both cell types were set to a 3.3 * 10^5 cells/mL dilution in assay DMEM by means of a CASY cell counter device using a 60um capillary. 6 uL of the mixture were dispensed per well (about 1 * 10^3 host-cells and 1 * 10^3 parasites) with a Multidrop Combi dispenser. […] In all wells, the percentage of DMSO never exceeded 0.5%. Plates incubated for four days at 37C, 5% CO2. The substrate used for the assay fluorescence intensity (FLINT) readout was resorufin-beta-D-galactopiranoside (Sigma-Aldrich) at 5uM per well. It was diluted in PBS supplemented with the soft detergent Igepal (Fluka).; assay type: functional, organism-based, Mus musculus; conditions: Tulahuen, NIH3T3
NIH3T3 = assay: GSK_TCAKS: pIC50 NIH 3T3 cell line viability assay using luminiscence. Tissue culture surface treated assay plates (1536-well) were used. […] The 100% cells survival control was determined exposing the host-cells to a 0.5% DMSO concentration, whereas the 100% toxicity control was achieved by seeding the cells in presence of Amphotericin B at 50uM. Plates were incubated for four days at 37C, 5% CO2. The assay readout was developed by addition of 5uL of CellTiter-Glo Reagent following the manufacturer's instructions. Luminiscence was measured using a ViewLux.; assay type: functional, cell-based; conditions: Mus musculus, NIH3T3, 96 h
[4] = test system: Trypanosoma brucei brucei; assay: GSK_TCAKS: pIC50 Trypanosoma brucei viability assay using luminiscence. Assay plates (1536-well) were prepared. T. brucei cultures were harvested and counted in a CASY cell counter. A parasite suspension was prepared at a final concentration of 5 * 10^4 cells/mL in complete HMI9 medium and 6uL was dispensed to all wells containing compounds using a Multidrop Combi dispenser. 6uL of HMI9 media with 0.4% DMSO were dispensed to control columns. Plates were incubated for 24 h at 37C, 5% CO2 then tempered for 10 min at room temperature. ATP content was quantified by adding 4 uL of CellTiter-Glo Reagent (Promega) according to the manufacturer's instructions. Luminescence was measured using a ViewLux.; assay type: functional, organism-based; conditions: Lister 427, CASY
Trypanosoma cruzi [5] = assay: (§2) GSK_TCAKS: pIC50 Trypanosoma cruzi Imaging: Infected Cells. […] Cells were then washed once with PBS before infection. T. cruzi trypomastigotes, collected at days 5 to 8 after infection from LLC-MK2 parasite infected cultures, were allowed to swim out for 4h at 37C from a centrifuged pellet (2,500 rpm/10 min/room temperature). Trypomastigotes were then collected and counted in a CASY Cell Counter. Trypomastigotes, in supplemented DMEM, were added to H9c2 cultures in a multiplicity of infection of 1 and incubated for 18 h. Cells were washed once with PBS before incubation of the infected H9c2 monolayer with trypsin (Life-Technologies) to detach cells from the flask. Cells were counted in a CASY Cell Counter using a 150 um capillary and their density set at 5 * 10^4 cells per mL in supplemented assay DMEM. Infected H9c2 were dispensed into 384-well poly-lysine coated assay plates at 50uL per well using a Multidrop Combi dispenser. After seeding them, the plates were incubated at 37C, 5% CO2 for 72h. Cultures were then fixed and stained by addition of 50 uL of a solution containing 8% formaldehyde and 4 uM DRAQ5 DNA dye (BioStatus, UK) per well. […] Five images were collected per well for reliable statistical analysis. Automated image analysis was performed with a script developed on Acapella High Content Imaging and Analysis Software (PerkinElmer). Output: percentage of infected cells per well as a second infection marker.; assay type: functional, organism-based, Rattus norvegicus; conditions: H9c2, 4 h
[6] = GSK_TCAKS: pIC50 HepG2 human cell line viability assay using luminiscence. […] Seeding density was checked to ensure that new mono-layers were not more than 50% confluent at the time of harvesting. Cell suspension was added to 500 mL of the same medium at a final density of 1.2 * 10^5 cells/mL. This cell suspension was dispensed (25 uL, 3000 cells per well) into 384-well clear-bottom plates using a Multidrop Combi dispenser. Prior to addition of the cell suspension, the screening compounds (250 nL) were pre-dispensed into the plates with an Echo liquid handler. Plates were incubated for 48 h at 37C, 5% CO2. After incubation, plates equilibrated at room temperature for 30 min before proceeding to develop the luminescent signal. The signal developer, CellTiter-Glo Reagent, was allowed to equilibrate at room temperature for 30 min and added to the plates (25uL per well) using a Multidrop Combi dispenser. Plates were left for 10 min at room temperature for stabilization and then read using a ViewLux.; assay type: toxicity, cell-based
[7] = test system: Trypanosoma brucei brucei; assay: GSK_TCAKS: pIC50 Trypanosoma brucei viability assay using fluorescence intensity. Assay plates (1536-well) were prepared by dispensing 25nL of compound solution per well using an Echo acoustic dispenser (Labcyte).; assay type: functional, organism-based; conditions: Lister 427, 2 h
Trypanosoma cruzi [8] = assay: as §2, with “H2C9” for “Trypanosoma cruzi”, “H9c2 Host Cardiomyocytes.” for “Infected Cells.”, “Number” for “percentage”, “H9c2 Host Cardiomyocytes nuclei to determine drug-related cytotoxicity.” for “infected cells per well as a second infection marker.”; assay type: functional, organism-based, Rattus norvegicus; conditions: H9c2, 4 h
Trypanosoma cruzi [9] = assay: GSK_TCAKS: pIC50 Trypanosoma cruzi Imaging: Amastigotes/Cell. […] Cells were then washed once with PBS before infection. T. cruzi trypomastigotes, collected at days 5 to 8 after infection from LLC-MK2 parasite infected cultures, were allowed to swim out for 4h at 37C from a centrifuged pellet (2,500 rpm/10 min/room temperature). Trypomastigotes were then collected and counted in a CASY Cell Counter. Trypomastigotes, in supplemented DMEM, were added to H9c2 cultures in a multiplicity of infection of 1 and incubated for 18 h. Cells were washed once with PBS before incubation of the infected H9c2 monolayer with trypsin (Life-Technologies) to detach cells from the flask. Cells were counted in a CASY Cell Counter using a 150 um capillary and their density set at 5 * 10^4 cells per mL in supplemented assay DMEM. Infected H9c2 were dispensed into 384-well poly-lysine coated assay plates at 50uL per well using a Multidrop Combi dispenser. After seeding them, the plates were incubated at 37C, 5% CO2 for 72h. Cultures were then fixed and stained by addition of 50 uL of a solution containing 8% formaldehyde and 4 uM DRAQ5 DNA dye (BioStatus, UK) per well. […] Five images were collected per well for reliable statistical analysis. Automated image analysis was performed with a script developed on Acapella High Content Imaging and Analysis Software (PerkinElmer). Output: number of amastigotes per cell as infection level measurement.; assay type: functional, organism-based, Rattus norvegicus; conditions: H9c2, 4 h
Leishmania donovani [10] = assay: as §1, with “THP-1 Host” for “Infected”, “THP-1 cell count” for “Percent of infected macrophage cells”; assay type: functional, organism-based, Homo sapiens
Leishmania donovani [11] = assay: as §1, with “Amastigotes/Macrophages.” for “Infected Macrophages.”, “Average number” for “Percent”, “amastigotes per” for “infected”, “cell” for “cells”; assay type: functional, organism-based, Homo sapiens; conditions: THP-1
[12] = target: Sterol 14-alpha demethylase (Trypanosoma cruzi (strain CL Brener), UniProt Q7Z1V1); assay: GSK_TCAKS: pIC50 CYP51 from Trypanosoma cruzi.; assay type: functional
Chain of Sterol 14-alpha demethylase (Q7Z1V1 whole entry): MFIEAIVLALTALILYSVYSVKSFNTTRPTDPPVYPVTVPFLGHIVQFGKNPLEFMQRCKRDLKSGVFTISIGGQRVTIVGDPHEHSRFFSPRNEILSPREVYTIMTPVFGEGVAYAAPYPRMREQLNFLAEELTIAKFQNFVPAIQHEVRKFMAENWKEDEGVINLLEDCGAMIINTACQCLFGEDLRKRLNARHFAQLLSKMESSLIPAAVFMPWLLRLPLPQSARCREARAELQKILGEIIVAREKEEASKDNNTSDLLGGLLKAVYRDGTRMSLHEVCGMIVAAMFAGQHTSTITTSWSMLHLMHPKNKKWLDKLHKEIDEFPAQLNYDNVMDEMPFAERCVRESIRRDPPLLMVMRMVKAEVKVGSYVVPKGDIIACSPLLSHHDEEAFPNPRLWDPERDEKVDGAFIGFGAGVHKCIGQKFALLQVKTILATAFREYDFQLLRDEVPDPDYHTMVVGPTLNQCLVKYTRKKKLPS

Compound | IC50 (Leishmania donovani [1]) [µM] | IC50 (Leishmania donovani [2]) [µM] | IC50 (Trypanosoma cruzi [3]) [µM] | IC50 (NIH3T3) [µM] | IC50 [4] [µM] | IC50 (Trypanosoma cruzi [5]) [µM] | IC50 at 48 h [6] [µM] | IC50 [7] [µM] | IC50 (Trypanosoma cruzi [8]) [µM] | IC50 (Trypanosoma cruzi [9]) [µM] | IC50 (Leishmania donovani [10]) [µM] | IC50 (Leishmania donovani [11]) [µM] | IC50 [12] [µM]
Cc1c(C(C)NC(=O)Nc2cccc(Cl)c2)sc2ncnn12 (centres undefined) | 2 | > 50.1 | 0.141 | > 50.1 | > 39.8 | 0.2 | > 100 | 20 | > 50.1 | 0.158 | > 50.1 | 2 | 0.126
CCCC(=O)N(Cc1ccccn1)c1nc2ccccc2s1 | 7.94 | > 50.1 | 0.126 | > 50.1 | > 39.8 | 0.1 | > 100 | 20 | > 50.1 | 0.0794 | > 50.1 | 10 | 0.0501
COc1ccc(-c2ccc3nnc(-c4ccc(O)c(OC)c4)n3c2)cn1 | 3.98 | > 50.1 | 1.26 | 50.1 | 2.51 | 3.16 | > 100 | 2 | > 50.1 | 2 | > 50.1 | > 50.1 | > 100
O=c1cc(NCCCNC2CCOc3c(I)cc(Cl)cc32)[nH]c2ccccc12 (centres undefined) | 31.6 | 20 | 0.794 | 25.1 | 0.02 | 0.316 | 63.1 | 0.01 | 25.1 | 0.158 | 20 | 12.6 | 15.8
CCC(c1ccc(F)cc1)n1cncc1-c1cnn(C)c1 (centres undefined) | > 50.1 | > 50.1 | 0.2 | 25.1 | > 39.8 | 0.316 | > 100 | > 39.8 | > 50.1 | 0.316 | > 50.1 | > 50.1 | 0.0794
CC(Cn1ccnc1)NC(=O)COc1ccc(Cl)c(Cl)c1 (centres undefined) | > 50.1 | > 50.1 | 0.224 | > 50.1 | > 39.8 | 0.501 | > 100 | > 39.8 | > 50.1 | 0.398 | > 50.1 | > 50.1 | 0.0631
N#Cc1cc(N2CCCC2=O)ccc1Sc1ccccc1CO | > 50.1 | > 50.1 | 0.251 | > 50.1 | 31.6 | 0.398 | > 100 | 39.8 | > 50.1 | 0.251 | > 50.1 | > 50.1 | 20
CCCN1CCN(Cc2ccc(S(=O)(=O)Nc3cccc(C)c3)cc2)CC1 | 25.1 | > 50.1 | 0.794 | 25.1 | > 39.8 | 0.794 | > 100 | 25.1 | > 50.1 | 0.631 | > 50.1 | > 50.1 | > 100
